Reference: patent publication US20240343740A1, “MACROCYCLIC GLUCAGON-LIKE PEPTIDE 1 RECEPTOR AGONISTS” (Eli Lilly and Company, priority 2021, published 2024)
Like-named read-outs stand apart in the source and are kept apart here.

Key:
[1] = cc_pd bond, 14-membered ring, 110.0 °C, 15.0 h
[2] = molecular target: T1, human GLP-1R (Homo sapiens, UniProt P43220); assay: GLP-1R CHO cell β-arrestin recruitment assay (PathHunter); type: cell-based; set-up: host or cells: CHO-K1; conditions: for EC50: CHO-K1 cells expressing Pro-Link-tagged Human GLP-1R and enzyme-acceptor-tagged β-arrestin-2, read-out: EC50 nM (SEM, n), hGLP1R induced β-Arrestin-2 recruitment relative EC50; for Emax: CHO-K1 cells, % stimulation with DMSO and GLP-1(7-36) as minimum and maximum controls, read-out: Emax % (SEM, n), hGLP1R induced β-Arrestin-2 recruitment
Experimental: GLP-1R CHO Cell β-Arrestin Recruitment Assay
Activated G-protein coupled receptors can interact with the β-arrestin family of signaling proteins. The potency of compounds for GLP-1R induced arrestin recruitment is determined using the PathHunter Enzyme Fragment Complementation approach substantially as described (von Degenfeld et al., FASEB J., 2007 (14):3819-26 and Hamdouchi et al., J. Med Chem., 2016 59(24):10891-10916). CHO-K1 cells expressing Pro-Link-tagged Human GLP-1R and enzyme-acceptor-tagged β-arrestin-2 may be obtained from DiscoveRx and prepared as assay-ready frozen cells. Test compounds are solubilized in DMSO and serial dilutions are performed using the Echo acoustic dispenser (LabCyte). Assay media is the PathHunter Cell Assay Buffer (DiscoveRx) containing 0.1% w/v hydrolyzed Casein (Sigma). 100 nL of test compound solution is dispensed into 10 μL of assay media in a 384 well plate and then 10 μL of cells in assay media are added to give 5000 cells per well. Plates are incubated for 90 min in a 37° C./5% CO2 incubator and 10 μL of PathHunter detection reagent is added (DiscoveRx) and plates are incubated at RT for 60 min. Luminescence signal is measured. Compound concentration-response curves fit to a four-parameter logistic model to calculate potency as an EC50 and percent top (Emax). Data normalization to % stimulation is performed using DMSO and GLP-1(7-36) as minimum and maximum controls (Campbell et al, Assay Guidance Manual 2017).
Target sequence in this assay (P43220 24-463): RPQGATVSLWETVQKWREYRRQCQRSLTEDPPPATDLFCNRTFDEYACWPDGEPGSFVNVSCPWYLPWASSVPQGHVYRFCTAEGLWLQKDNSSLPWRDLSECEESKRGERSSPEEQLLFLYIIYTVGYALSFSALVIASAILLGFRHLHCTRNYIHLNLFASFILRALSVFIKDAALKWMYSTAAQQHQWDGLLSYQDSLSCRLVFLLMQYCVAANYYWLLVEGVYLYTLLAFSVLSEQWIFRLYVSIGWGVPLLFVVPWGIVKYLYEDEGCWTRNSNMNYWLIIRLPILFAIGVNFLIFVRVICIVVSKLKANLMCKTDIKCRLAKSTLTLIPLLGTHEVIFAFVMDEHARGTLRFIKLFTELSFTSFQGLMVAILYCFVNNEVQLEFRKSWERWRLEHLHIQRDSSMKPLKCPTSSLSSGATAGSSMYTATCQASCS
Target sequence in this assay (P32121 whole entry partner): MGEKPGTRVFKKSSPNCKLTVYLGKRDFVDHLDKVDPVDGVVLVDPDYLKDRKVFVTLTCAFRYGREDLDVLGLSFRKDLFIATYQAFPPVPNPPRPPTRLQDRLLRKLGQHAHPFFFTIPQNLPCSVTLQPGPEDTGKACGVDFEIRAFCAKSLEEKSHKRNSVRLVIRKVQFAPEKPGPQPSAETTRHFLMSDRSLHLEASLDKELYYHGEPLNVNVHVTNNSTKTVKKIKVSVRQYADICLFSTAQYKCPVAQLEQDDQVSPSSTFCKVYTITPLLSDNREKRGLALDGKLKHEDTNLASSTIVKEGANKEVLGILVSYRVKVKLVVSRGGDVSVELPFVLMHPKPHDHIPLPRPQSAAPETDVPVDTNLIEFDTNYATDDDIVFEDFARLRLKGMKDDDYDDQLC

[3] = molecular target: T1, human GLP-1R; assay: Human GLP-1 Receptor HEK293 cell cAMP assay, 581 fmol/mg GLP-1R expression density; type: cell-based; set-up: expressed in transfected cells; host or cells: HEK293 clonal cell line; conditions: HEK293 cell line with 581 fmol/mg expression density of GLP-1R; for EC50: geometric mean, read-out: EC50 nM (SEM, n), intracellular cAMP response, relative EC50; for Emax: percent of maximal response to GLP-1(7-36)NH2, arithmetic mean, read-out: Emax % (SEM, n), intracellular cAMP response
In short: (§1)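 HEK293 clonal lines expressing human GLP-1R, 20-point compound curves, 30 min at 37° C in DMEM with 0.1% casein, 250 μM IBMX, 0.5% DMSO. cAMP by HTRF, converted via standard curve to % of maximal human GLP-1(7-36)NH2 response; relative EC50 and Emax from four-parameter logistic fit.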
Target sequence in this assay (P43220 24-463): as the sequence (P43220 24-463) above

[4] = molecular target: T1, human GLP-1R; assay: Human GLP-1 Receptor HEK293 cell cAMP assay, 104 fmol/mg GLP-1R expression density; type: cell-based; set-up: expressed in transfected cells; host or cells: HEK293 clonal cell line; conditions: HEK293 cell line with 104 fmol/mg expression density of GLP-1R; for EC50: geometric mean, read-out: EC50 nM (SEM, n), intracellular cAMP response, relative EC50; for Emax: percent of maximal response to GLP-1(7-36)NH2, arithmetic mean, read-out: Emax % (SEM, n), intracellular cAMP response
In short: as §1
Target sequence in this assay (P43220 24-463): as above

Row | EC50 [2] | Emax [2] | EC50 [3] | Emax [3] | EC50 [4] | Emax [4] | SMILES | ring closure, yield after HPLC ([1]; from FC(F)(F)c1cc(CCOCc2cc(Br)ccc2Cl)c(COc2cccc(Br)n2)cn1, XPhos Pd G3) | ring closure, yield after HPLC ([1]; from CCOC(=O)Cc1cc(F)c(Br)cc1COCCc1cc(C#N)ccc1COc1ccc(F)c(Br)n1, XPhos Pd G3/Me3SnSnMe3/CsF, 1,4-dioxane, 11.4 mM)
1 | 213 nM | 42.9% | 19.8 nM | 95% | 59.7 nM | 71% | N#Cc1ccc2c(c1)CCCOc1cc(c(F)cc1Cc1nc3ccc(C(=O)O)cc3n1C[C@@H]1CCO1)-c1cccc(n1)OC2 [Example 1, (S)-2-((5^4-Cyano-1^6-fluoro-3,9-dioxa-2(2,6)-pyridina-1(1,3),5(1,2)-dibenzenacyclononaphane-1^4-yl)methyl)-1-(oxetan-2-ylmethyl)-1H-benzo[d]imidazole-6-carboxylic acid] | – | –
2 | 320 nM | 34% | 44.1 nM | 102% | 132 nM | 84% | O=C(O)c1ccc2nc(Cc3ccc4cc3OCCCc3cc(Cl)ccc3COc3cccc-4n3)n(C[C@@H]3CCO3)c2c1 [Example 3, (S)-2-((5^4-Chloro-3,9-dioxa-2(2,6)-pyridina-1(1,3),5(1,2)-dibenzenacyclononaphane-1^4-yl)methyl)-1-(oxetan-2-ylmethyl)-1H-benzo[d]imidazole-6-carboxylic acid] | – | –

The remaining lines, values behind:

Row | SMILES | EC50 [2] | Emax [2] | EC50 [3] | Emax [3] | EC50 [4] | Emax [4] | ring closure, yield after HPLC ([1]; from FC(F)(F)c1cc(CCOCc2cc(Br)ccc2Cl)c(COc2cccc(Br)n2)cn1, XPhos Pd G3) | ring closure, yield after HPLC ([1]; from CCOC(=O)Cc1cc(F)c(Br)cc1COCCc1cc(C#N)ccc1COc1ccc(F)c(Br)n1, XPhos Pd G3/Me3SnSnMe3/CsF, 1,4-dioxane, 11.4 mM)
3 | FC(F)(F)c1cc2c(cn1)COc1cccc(n1)-c1ccc(Cl)c(c1)COCC2 | – | – | – | – | – | – | 14% | –
4 | COc1cc(-c2nnn[nH]2)cc2c1nc(Cc1ccc3cc1OCCCc1cc(C#N)ccc1COc1cccc-3n1)n2C[C@@H]1CCO1 [Example 12, (S)-1^4-((4-Methoxy-1-(oxetan-2-ylmethyl)-6-(1H-tetrazol-5-yl)-1H-benzo[d]imidazol-2-yl)methyl)-3,9-dioxa-2(2,6)-pyridina-1(1,3),5(1,2)-dibenzenacyclononaphane-5^4-carbonitrile] | > 49500 nM | 9.47% | 20.2 nM | 81.8% | 66.3 nM | 46.4% | – | –
5 | CCOC(=O)Cc1cc(F)c2cc1COCCc1cc(C#N)ccc1COc1ccc(F)c-2n1 | – | – | – | – | – | – | – | 29%
6 | N#Cc1ccc2c(c1)CCCOc1cc(c(F)cc1Cc1nc3c(F)cc(C(=O)O)cc3n1C[C@@H]1CCO1)-c1cccc(n1)OC2 [Example 2, (S)-2-((5^4-Cyano-1^6-fluoro-3,9-dioxa-2(2,6)-pyridina-1(1,3),5(1,2)-dibenzenacyclononaphane-1^4-yl)methyl)-4-fluoro-1-(oxetan-2-ylmethyl)-1H-benzo[d]imidazole-6-carboxylic acid] | 133 nM | 52.7% | 8.05 nM | 98% | 17.5 nM | 72% | – | –
